We go through two molecules from patent US11584727B2, “2-thioxothiazolidin-4-one derivatives active as transthyretin ligands and uses thereof” (BSIM Therapeutics, S.A., priority 2014, dated 2023).

The target in data set [1] is Val122Ile transthyretin (V122I-TTR) (Homo sapiens, UniProt P02766, V142I). Kind of data set: V122I-TTR amyloid fibril formation assay (turbidimetry, acid-induced). The following applies: pH 4.4, 72 hours; for Fibril Formation (%): V122I-TTR 3.6 μM, 37° C. It is filed as biochemical.
Data set [2] is described as follows: HepG2 cell viability, resazurin reduction assay. It is filed as cell-based. The following applies: human, HepG2 hepatoma cells, approximately 72 hours incubation, read-out: inhibitory dose (ID50), cell viability. The text has this:
Cell viability of HepG2 hepatoma cells was quantified in order to assess the toxicity of the compounds at increasing concentrations. The used assay is described in detail in the “Experimental Evaluation of Cytotoxicity of Compounds using Cell-based Assays” section in “Materials and Methods”. This is a relevant assessment not just to discard potential concerns of liver damage (which is a problem reported for many drugs) but also because of the long-term nature of the treatments that patients suffering from TTR-mediated amyloidoses need to undertake.
Adherent human hepatoma cells HepG2 were cultured in DMEM (Dulbecco's Modified Eagle's Medium) with 10% fetal bovine serum (FBS), 100 U/mL penicillin, […] streptomycin, and 1 mM sodium pyruvate. The cells were grown in 75 cm^2 culture flasks at 37° C., in an atmosphere of 5% CO2, and subcultured twice a week using a trypsin-EDTA solution.
Upon 3 to 4 days of growth and reaching approximately 90% confluence, HepG2 cells were plated in 96-well microplates with cell density of 12×10^3 cells/well and in a volume of 100 μL per well.
The compounds are dissolved in DMSO and subsequently diluted in DMEM (in 9 intermediate […] concentrations). After adhesion of HepG2 cells to the microplates, […] 100 μL of each solution of intermediate compound concentration were added to each well (in quadruplicate). Positive controls were done with 10 wells containing only cells; solvent controls resulted from the analysis of the three highest DMSO concentrations tested and were carried out in triplicate.
After addition of the compounds to the cells, the microplates were incubated for approximately 72 hours at 37° C. in an atmosphere of 5% CO2 until the cell viability assay was performed.
The cell viability of HepG2 cells in the presence of test compounds was assessed by the resazurin reduction assay. Resazurin is a redox indicator that is converted into resorufin through reduction reactions of metabolically active cells. In the oxidized form it presents a purplish blue color, while the reduced form presents a purple-pink color.
A stock solution of 0.01% resazurin in PBS is diluted 1:10 in incomplete RPMI 1640 cell medium (without addition of antibiotics and FBS). After washing the cells with 200 μL PBS containing Ca^2+ and Mg^2+, 200 μL of resazurin 0.001% are added to the wells. Control runs with incomplete RPMI 1640 medium only and (without cells) are done in triplicate. […]
To quantify the reduction of resazurin to resorufin, microplate absorbance readings were taken at two wavelengths, 540 nm (reduced form) and 630 nm (oxidized form), in a Biotek spectrophotometer microplate reader. The percentage of viable cells at each compound concentration is determined using the formula: […]

The structures appear in SMILES notation.

Take `COc1cc(/C=C2\SC(=S)N(CC(=O)O)C2=O)cc(Cl)c1O` [AT50-A00 (Z), (Z)-3-hydroxycarbonylmethyl-5-(3′-chloro-4′-hydroxy-5′-methoxyphenylmethylidene)-2-thioxothiazolidin-4-one]: the “Fibril Formation (%)” value in data set [1] is 52%. This molecule displayed an IC50 in data set [1] (V122I-TTR fixed at 3.6 μM, ten compound concentrations) of 3.73 µM. Besides, the IC50 at 72 h in data set [2] was > 400 µM.

As to `O=C(O)c1ccc2nc(-c3cc(Cl)cc(Cl)c3)oc2c1` [Tafamidis, reference compound], the “Fibril Formation (%)” value in data set [1] was 49%. Also, the IC50 at 72 h in data set [2] is ~250 µM.
